The source of these data is patent US20250296959A1, “B7-H3 TARGETING PEPTIDES AND CONSTRUCTS THEREOF” (Mariana Oncology Inc., priority 2024, published 2025).

Starred links: 1 amine or outer side, 2 acyl side, 3 side chain; linkers in the order of their positions; H or OH if unused. Positions of bridges follow the written chain, without caps; N, C: chain ends. Non-standard residues stand in square brackets, D forms with d. Residues, ends and D or L forms follow the SMILES beside them. Groups on a side chain read outwards from the residue. ξ: configuration not given here. *: point of attachment. Ala(piperidin-4-yl) = O=C([C@H](CC1CCN([*:3])CC1)N[*:1])[*:2]; DOTA = O=C(O)CN1CCN(CC(=O)O)CCN(CC(=O)*)CCN(CC(=O)O)CC1; Phe(4-COOH) = N[C@@H](Cc1ccc(C(=O)O)cc1)C(=O)O; Trp(5-F) = N[C@@H](Cc1c[nH]c2ccc(F)cc12)C(=O)O; Trp(1-Me) = Cn1cc(C[C@H](N)C(=O)O)c2ccccc21; 2Nal = N[C@@H](Cc1ccc2ccccc2c1)C(=O)O; Ala(4-THP) = N[C@@H](CC1CCOCC1)C(=O)O; Phe(2-OH) = N[C@@H](Cc1ccccc1O)C(=O)O; Val(3-OH) = CC(C)(O)[C@H](N)C(=O)O; X14 = CC(C)CC[C@H](NC(N)=O)C(=O)*; PEG4 = NCCOCCOCCOCCOCCC(=O)O; Tle = CC(C)(C)[C@H](N)C(=O)O; hLeu = CC(C)CC[C@H](N)C(=O)O; Nle = CCCC[C@H](N)C(=O)O; ξV = CC(C)C(N)C(=O)O A value given as a limit tells only on which side of the number the result lay.

The Kd is a measure of binding affinity in units of concentration. Read a low Kd as higher affinity.

In this assay the target is T1, human 4lg B7-H3 (Homo sapiens, UniProt Q5ZPR3).
T1 sequence (Q5ZPR3 29-534): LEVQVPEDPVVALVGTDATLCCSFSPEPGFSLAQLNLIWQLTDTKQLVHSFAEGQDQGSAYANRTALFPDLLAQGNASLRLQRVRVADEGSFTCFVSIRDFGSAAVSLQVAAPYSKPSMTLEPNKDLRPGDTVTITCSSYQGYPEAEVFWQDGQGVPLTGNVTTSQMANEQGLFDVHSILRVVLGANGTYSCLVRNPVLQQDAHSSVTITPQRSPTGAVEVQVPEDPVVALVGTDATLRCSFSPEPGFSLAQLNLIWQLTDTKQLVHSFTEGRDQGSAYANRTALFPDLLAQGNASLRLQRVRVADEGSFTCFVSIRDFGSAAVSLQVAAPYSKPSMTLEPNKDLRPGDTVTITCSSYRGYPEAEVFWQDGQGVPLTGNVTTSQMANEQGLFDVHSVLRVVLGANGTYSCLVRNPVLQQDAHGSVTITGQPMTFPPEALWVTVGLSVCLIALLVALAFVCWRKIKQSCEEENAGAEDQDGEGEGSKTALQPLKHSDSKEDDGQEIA
The experiment in a line: Affinity determination by surface plasmon resonance (SPR) to 4Ig B7-H3. The settings on record: 4Ig B7-H3. A general note: Surface plasmon resonance follows binding to a sensor surface in real time, without labels.

Setting [1] is: SPR KD—37° C., 37° C. flow cell temperature.
The mark [2] stands for this setting: SPR KD—25° C., 25° C. flow cell temperature.

As for `CC(=O)N[C@@H](CCC(C)C)C(=O)N[C@@H](Cc1ccc(O)cc1)C(=O)N[C@H]1CSSC[C@@H](C(=O)N[C@@H](Cc2c[nH]c3ccc(F)cc23)C(=O)N[C@@H](Cc2ccccc2)C(=O)N[C@H](C(=O)N[C@H](CO)C(=O)O)C(C)(C)O)NC(=O)[C@H](Cc2ccc(O)cc2)NC(=O)[C@H](C(C)C)NC(=O)[C@H](CC(=O)O)NC(=O)[C@H](CC2CCN(C(=O)CCOCCOCCOCCOCCNC(=O)CN3CCN(CC(=O)O)CCN(CC(=O)O)CCN(CC(=O)O)CC3)CC2)NC(=O)[C@H](CC2CCNCC2)NC(=O)CNC(=O)[C@H](C(C)(C)C)NC1=O` [compound 483, Ac-hLeu-Y-C-Tbg-G-PipAla-Pip(PEG4-DOTA)Ala-D-V-Y-C-5FW-F-hydroxyVal-dSer-COOH] (Ac-[hLeu]YC[Tle]G[Ala(piperidin-4-yl)][Ala(piperidin-4-yl)]([PEG4-DOTA])DVYC[Trp(5-F)]F[Val(3-OH)][dS]-OH; disulfide 3-11), the dissociation constant (Kd) under setting [1] is less than 1 nM.

On to `CC(=O)N[C@@H](CCC(C)C)C(=O)N[C@@H](Cc1ccc(O)cc1)C(=O)N[C@H]1CSSC[C@@H](C(=O)N[C@@H](Cc2c[nH]c3ccc(F)cc23)C(=O)N[C@@H](Cc2ccccc2)C(=O)N2CCC[C@H]2C(=O)O)NC(=O)[C@H](Cc2ccc(O)cc2)NC(=O)[C@H](C(C)C)NC(=O)[C@H](CC(=O)O)NC(=O)[C@H](Cc2ccc(C(=O)O)cc2)NC(=O)[C@H](CCCCNC(=O)CN2CCN(CC(=O)O)CCN(CC(=O)O)CCN(CC(=O)O)CC2)NC(=O)CNC(=O)[C@H](C(C)C)NC1=O` [compound 290, Ac-hLeu-Y-C-V-G-Lys(DOTA)-4COOHPhe-D-V-Y-C-5FW-F-Pro-COOH] (Ac-[hLeu]YCVGK(DOTA)[Phe(4-COOH)]DVYC[Trp(5-F)]FP-OH; disulfide 3-11), for which the Kd under setting [2] is 100 to 300 nM.

Turning to `CC(=O)N[C@@H](CCC(C)C)C(=O)N[C@@H](Cc1ccc(O)cc1)C(=O)N[C@H]1CSSC[C@@H](C(=O)N[C@@H](Cc2c[nH]c3ccc(F)cc23)C(=O)N[C@@H](Cc2ccccc2)C(=O)N[C@H](C(=O)N[C@H](CCCCNC(=O)CN2CCN(CC(=O)O)CCN(CC(=O)O)CCN(CC(=O)O)CC2)C(=O)O)C(C)(C)O)NC(=O)[C@H](Cc2ccc(O)cc2)NC(=O)[C@H](C(C)C)NC(=O)[C@H](CC(=O)O)NC(=O)[C@H](CC2CCOCC2)NC(=O)[C@H](CCCCN)NC(=O)CNC(=O)[C@H]([C@@H](C)O)NC1=O` [compound 370, Ac-hLeu-Y-C-Thr-G-K-ThpA-D-V-Y-C-5FW-F-hydroxyVal-dLys(DOTA)-COOH] (Ac-[hLeu]YCTGK[Ala(4-THP)]DVYC[Trp(5-F)]F[Val(3-OH)][dK](DOTA)-OH; disulfide 3-11), the equilibrium dissociation constant (Kd) under setting [1] was 1 to 10 nM.

On to `CC(=O)N[C@@H](CCC(C)C)C(=O)N[C@@H](Cc1ccc(O)cc1)C(=O)N[C@H]1CSSC[C@@H](C(=O)N[C@@H](Cc2c[nH]c3ccc(F)cc23)C(=O)N[C@@H](Cc2ccccc2)C(=O)N2CCC[C@H]2C(=O)N[C@H](CCCCNC(=O)CN2CCN(CC(=O)O)CCN(CC(=O)O)CCN(CC(=O)O)CC2)C(N)=O)NC(=O)[C@H](Cc2ccc(O)cc2)NC(=O)[C@H](C(C)C)NC(=O)[C@H](CC(=O)O)NC(=O)[C@H](Cc2ccc(O)cc2)NC(=O)[C@H](CCCCN)NC(=O)CNC(=O)[C@H](C(C)(C)C)NC1=O` [compound 248, Ac-hLeu-Y-C-Tbg-G-K-Y-D-V-Y-C-5FW-F-Pro-dLys(DOTA)-CONH2] (Ac-[hLeu]YC[Tle]GKYDVYC[Trp(5-F)]FP[dK](DOTA)-NH2; disulfide 3-11), for which the equilibrium dissociation constant (Kd) under setting [2] lay within 1 to 10 nM.

Turning to `CCCC[C@H](NC(C)=O)C(=O)N[C@@H](Cc1ccc(O)cc1)C(=O)N[C@H]1CSSC[C@@H](C(=O)N[C@@H](Cc2ccc3ccccc3c2)C(=O)N[C@@H](Cc2ccccc2)C(=O)N[C@H](C(=O)N[C@H](CCCCNC(=O)CN2CCN(CC(=O)O)CCN(CC(=O)O)CCN(CC(=O)O)CC2)C(N)=O)[C@@H](C)O)NC(=O)[C@H](Cc2ccc(O)cc2)NC(=O)C(C(C)C)NC(=O)[C@H](CC(=O)O)NC(=O)[C@H](Cc2ccc(O)cc2)NC(=O)[C@H](CCCCN)NC(=O)CNC(=O)[C@H](C(C)C)NC1=O` (stereo partly drawn) [compound 129, Ac-Nle-Y-C-V-G-K-Y-D-V-Y-C-2Nal-F-Thr-dLys(DOTA)-CONH2] (Ac-[Nle]YCVGKYD[ξV]YC[2Nal]FT[dK](DOTA)-NH2; disulfide 3-11), the Kd under setting [2] was 100 to 300 nM.

Under setting [1], `CC(=O)N[C@@H](CCC(C)C)C(=O)N[C@@H](Cc1ccc(O)cc1)C(=O)N[C@H]1CSSC[C@@H](C(=O)N[C@@H](Cc2c[nH]c3ccc(F)cc23)C(=O)N[C@@H](Cc2ccccc2)C(=O)N[C@H](C(=O)N[C@H](CCCCNC(=O)CN2CCN(CC(=O)O)CCN(CC(=O)O)CCN(CC(=O)O)CC2)C(=O)O)C(C)(C)O)NC(=O)[C@H](Cc2ccccc2O)NC(=O)[C@H](C(C)C)NC(=O)[C@H](CC(=O)O)NC(=O)[C@H](CC2CCOCC2)NC(=O)[C@H](CC2CCNCC2)NC(=O)CNC(=O)[C@H](C(C)(C)C)NC1=O` [compound 467, Ac-hLeu-Y-C-Tbg-G-PipAla-ThpA-D-V-20HPhe-C-5FW-F-hydroxyVal-dLys(DOTA)-COOH] (Ac-[hLeu]YC[Tle]G[Ala(piperidin-4-yl)][Ala(4-THP)]DV[Phe(2-OH)]C[Trp(5-F)]F[Val(3-OH)][dK](DOTA)-OH; disulfide 3-11) gave a Kd of 1 to 10 nM.

`CCCC[C@H](NC(C)=O)C(=O)N[C@@H](Cc1ccc(O)cc1)C(=O)N[C@H]1CSSC[C@@H](C(=O)N[C@@H](Cc2c[nH]c3ccc(F)cc23)C(=O)N[C@@H](Cc2ccccc2)C(=O)N[C@H](C(N)=O)[C@@H](C)O)NC(=O)[C@H](Cc2ccc(O)cc2)NC(=O)[C@H](C(C)C)NC(=O)[C@H](CC(=O)O)NC(=O)[C@H](Cc2ccc(O)cc2)NC(=O)[C@H](CCCCN)NC(=O)CNC(=O)[C@H](C(C)C)NC1=O` [compound 59, Ac-Nle-Y-C-V-G-K-Y-D-V-Y-C-5FW-F-Thr-CONH2] (Ac-[Nle]YCVGKYDVYC[Trp(5-F)]FT-NH2; disulfide 3-11) yielded a Kd under setting [2] of 1 to 10 nM.

Under setting [1], `CC(=O)N[C@@H](CCC(C)C)C(=O)N[C@@H](Cc1ccc(O)cc1)C(=O)N[C@H]1CSSC[C@@H](C(=O)N[C@@H](Cc2cn(C)c3ccccc23)C(=O)N[C@@H](Cc2ccccc2)C(=O)N[C@H](C(=O)N[C@H](CCCCNC(=O)CN2CCN(CC(=O)O)CCN(CC(=O)O)CCN(CC(=O)O)CC2)C(=O)O)C(C)(C)O)NC(=O)[C@H](Cc2ccc(O)cc2)NC(=O)[C@H](C(C)C)NC(=O)[C@H](CC(=O)O)NC(=O)[C@H](CC2CCOCC2)NC(=O)[C@H](CC2CCNCC2)NC(=O)CNC(=O)[C@H](C(C)(C)C)NC1=O` [compound 462, Ac-hLeu-Y-C-Tbg-G-PipAla-ThpA-D-V-Y-C-Trp(Me)-F-hydroxyVal-dLys(DOTA)-COOH] (Ac-[hLeu]YC[Tle]G[Ala(piperidin-4-yl)][Ala(4-THP)]DVYC[Trp(1-Me)]F[Val(3-OH)][dK](DOTA)-OH; disulfide 3-11) came in with a dissociation constant (Kd) of less than 1 nM.

For the molecule `CC(C)CC[C@H](NC(N)=O)C(=O)N[C@@H](Cc1ccc(O)cc1)C(=O)N[C@H]1CSSC[C@@H](C(=O)N[C@@H](Cc2c[nH]c3ccc(F)cc23)C(=O)N[C@@H](Cc2ccccc2)C(=O)N[C@H](C(=O)N[C@H](CCCCNC(=O)CN2CCN(CC(=O)O)CCN(CC(=O)O)CCN(CC(=O)O)CC2)C(=O)O)C(C)(C)O)NC(=O)[C@H](Cc2ccc(O)cc2)NC(=O)[C@H](C(C)C)NC(=O)[C@H](CC(=O)O)NC(=O)[C@H](CC2CCOCC2)NC(=O)[C@H](CC2CCNCC2)NC(=O)CNC(=O)[C@H](C(C)(C)C)NC1=O` [Cpd #468, urea-hLeu-Y-C-Tbg-G-PipAla-ThpA-D-V-Y-C-5FW-F-hydroxyVal-dLys(DOTA)-COOH] (X14-YC[Tle]G[Ala(piperidin-4-yl)][Ala(4-THP)]DVYC[Trp(5-F)]F[Val(3-OH)][dK](DOTA)-OH; disulfide 2-10), under setting [1], the equilibrium dissociation constant (Kd) is less than 1 nM.

`CCCC[C@H](NC(C)=O)C(=O)N[C@@H](Cc1ccc(O)cc1)C(=O)N[C@H]1CSSC[C@@H](C(=O)N[C@@H](Cc2c[nH]c3ccccc23)C(=O)N[C@@H](Cc2ccccc2)C(N)=O)NC(=O)[C@H](Cc2ccc(O)cc2)NC(=O)[C@H](C(C)C)NC(=O)[C@H](CC(=O)O)NC(=O)[C@H](Cc2ccc(C(=O)O)cc2)NC(=O)[C@H](CCCCN)NC(=O)CNC(=O)[C@H](C(C)C)NC1=O` [compound 24, Ac-Nle-Y-C-V-G-K-4COOHPhe-D-V-Y-C-W-F-CONH2] (Ac-[Nle]YCVGK[Phe(4-COOH)]DVYCWF-NH2; disulfide 3-11): the Kd under setting [1] fell in the range of 10 to 100 nM.

`CC(=O)N[C@@H](CCC(C)C)C(=O)N[C@@H](Cc1ccc(O)cc1)C(=O)N[C@H]1CSSC[C@@H](C(=O)N[C@@H](Cc2c[nH]c3ccc(F)cc23)C(=O)N[C@@H](Cc2ccccc2)C(=O)N2CCC[C@H]2C(=O)N[C@H](CCCCNC(=O)CN2CCN(CC(=O)O)CCN(CC(=O)O)CCN(CC(=O)O)CC2)C(N)=O)NC(=O)[C@H](Cc2ccc(O)cc2)NC(=O)[C@H](C(C)C)NC(=O)[C@H](CC(=O)O)NC(=O)[C@H](Cc2ccc(C(=O)O)cc2)NC(=O)[C@H](CCCCN)NC(=O)CNC(=O)[C@H](C(C)C)NC1=O` [compound 291, Ac-hLeu-Y-C-V-G-K-4COOHPhe-D-V-Y-C-5FW-F-Pro-dLys(DOTA)-CONH2] (Ac-[hLeu]YCVGK[Phe(4-COOH)]DVYC[Trp(5-F)]FP[dK](DOTA)-NH2; disulfide 3-11) displayed a Kd under setting [2] of less than 1 nM.
